{"source": "paper PMC6979384", "about": "“Characterization of the plant homeodomain (PHD) reader family for their histone tail interactions” (Epigenetics & Chromatin, 2020)", "assay_in_all_cases": "Histone peptide microarray", "assay_type_in_all_cases": "binding, human", "key": {"ING3": {"system": "ING3", "settings": "GST-tagged ING3; histone peptide array; arrays performed twice, n of 4", "summary_of_the_method": "(§1)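 Purified PHD finger domains fused to GST are screened against 293 synthetic histone peptides bearing one or several post-translational modifications. The protein is used at 0.5 μM, and the signal from four replicate arrays is averaged, with standard deviation given.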"}, "PHF2": {"system": "PHF2", "settings": "GST-tagged PHF2; histone peptide array; arrays performed twice, n of 4", "summary_of_the_method": "as §1"}, "KDM4C (TTP)": {"system": "KDM4C (TTP)", "settings": "GST-tagged KDM4C (TTP = Tandem Tudor domain + PHD); histone peptide array; arrays performed twice, n of 4", "summary_of_the_method": "as §1"}, "DPF2 (PPC2W2)": {"system": "DPF2 (PPC2W2)", "settings": "GST-tagged DPF2 (PPC2W2 = Dual PHD + C2W2-type Zn-finger); histone peptide array; arrays performed twice, n of 4", "summary_of_the_method": "as §1"}, "BAZ2B": {"system": "BAZ2B", "settings": "GST-tagged BAZ2B; histone peptide array; arrays performed twice, n of 4", "summary_of_the_method": "as §1"}, "CHD4 (PPCC)": {"system": "CHD4 (PPCC)", "settings": "GST-tagged CHD4 (PPCC = Dual PHD + Dual Chromodomain); histone peptide array; arrays performed twice, n of 4", "summary_of_the_method": "as §1"}, "CHD5 (PCC)": {"system": "CHD5 (PCC)", "settings": "GST-tagged CHD5 (PCC = PHD + Dual Chromodomain); histone peptide array; arrays performed twice, n of 4", "summary_of_the_method": "as §1"}, "BPTF (PB)": {"system": "BPTF (PB)", "settings": "GST-tagged BPTF (PB = PHD + Bromodomain); histone peptide array; arrays performed twice, n of 4", "summary_of_the_method": "as §1"}, "TRIM66 (PB)": {"system": "TRIM66 (PB)", "settings": "GST-tagged TRIM66 (PB = PHD + Bromodomain); histone peptide array; arrays performed twice, n of 4", "summary_of_the_method": "as §1"}, "MLL5": {"system": "MLL5", "settings": "GST-tagged MLL5; histone peptide array; arrays performed twice, n of 4", "summary_of_the_method": "as §1"}, "PHF8": {"system": "PHF8", "settings": "GST-tagged PHF8; histone peptide array; arrays performed twice, n of 4", "summary_of_the_method": "as §1"}, "KDM5B (3)": {"system": "KDM5B (3)", "settings": "GST-tagged KDM5B (3); histone peptide array; arrays performed twice, n of 4", "summary_of_the_method": "as §1"}, "PHF21A": {"system": "PHF21A", "settings": "GST-tagged PHF21A; histone peptide array; arrays performed twice, n of 4", "summary_of_the_method": "as §1"}, "KDM7A": {"system": "KDM7A", "settings": "GST-tagged KDM7A; histone peptide array; arrays performed twice, n of 4", "summary_of_the_method": "as §1"}, "ING2": {"system": "ING2", "settings": "GST-tagged ING2; histone peptide array; arrays performed twice, n of 4", "summary_of_the_method": "as §1"}, "SP140L": {"system": "SP140L", "settings": "GST-tagged SP140L; histone peptide array; arrays performed twice, n of 4", "summary_of_the_method": "as §1"}, "RAG2": {"system": "RAG2", "settings": "GST-tagged RAG2; histone peptide array; arrays performed twice, n of 4", "summary_of_the_method": "as §1"}, "MORC3 (CW)": {"system": "MORC3 (CW)", "settings": "GST-tagged MORC3 (CW = CW-type Zn-finger); histone peptide array; arrays performed twice, n of 4", "summary_of_the_method": "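Steps: express and purify GST-tagged PHD reader; incubate 0.5 μM protein on a peptide microarray (293 histone peptides, single or combined PTMs) following an optimized protocol; average signal across 4 replicates.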"}, "PHF23": {"system": "PHF23", "settings": "GST-tagged PHF23; histone peptide array; arrays performed twice, n of 4", "summary_of_the_method": "as §1"}, "CHD5 (PPCC)": {"system": "CHD5 (PPCC)", "settings": "GST-tagged CHD5 (PPCC = Dual PHD + Dual Chromodomain); histone peptide array; arrays performed twice, n of 4", "summary_of_the_method": "as §1"}, "KDM5B (1)": {"system": "KDM5B (1)", "settings": "GST-tagged KDM5B (1); histone peptide array; arrays performed twice, n of 4", "summary_of_the_method": "as §1"}, "KDM5A (3)": {"system": "KDM5A (3)", "settings": "GST-tagged KDM5A (3); histone peptide array; arrays performed twice, n of 4", "summary_of_the_method": "as §1"}, "AIRE (PP)": {"system": "AIRE (PP)", "settings": "GST-tagged AIRE (PP); histone peptide array; arrays performed twice, n of 4", "summary_of_the_method": "as §1"}, "ING1": {"system": "ING1", "settings": "GST-tagged ING1; histone peptide array; arrays performed twice, n of 4", "summary_of_the_method": "as §1"}, "PHF13": {"system": "PHF13", "settings": "GST-tagged PHF13; histone peptide array; arrays performed twice, n of 4", "summary_of_the_method": "as §1"}, "DIDO1": {"system": "DIDO1", "settings": "GST-tagged DIDO1; histone peptide array; arrays performed twice, n of 4", "summary_of_the_method": "as §1"}, "PHRF1 (RP)": {"system": "PHRF1 (RP)", "settings": "GST-tagged PHRF1 (RP); histone peptide array; arrays performed twice, n of 4", "summary_of_the_method": "as §1"}, "KDM5A (1)": {"system": "KDM5A (1)", "settings": "GST-tagged KDM5A (1); histone peptide array; arrays performed twice, n of 4", "summary_of_the_method": "as §1"}, "ING4": {"system": "ING4", "settings": "GST-tagged ING4; histone peptide array; arrays performed twice, n of 4", "summary_of_the_method": "as §1"}, "ING5": {"system": "ING5", "settings": "GST-tagged ING5; histone peptide array; arrays performed twice, n of 4", "summary_of_the_method": "as §1"}, "TAF3": {"system": "TAF3", "settings": "GST-tagged TAF3; histone peptide array; arrays performed twice, n of 4", "summary_of_the_method": "as §1"}}}
{"substance": "H4K5ac + K12ac: H4 1-23", "values": [{"measurement": "Array Heatmap signal, ING3", "setting": "ING3", "value": 0.4957}, {"measurement": "Array Heatmap signal, PHF2", "setting": "PHF2", "value": 0.5746}, {"measurement": "Array Heatmap signal, KDM4C (TTP)", "setting": "KDM4C (TTP)", "value": 0.4758}, {"measurement": "Array Heatmap signal, DPF2 (PPC2W2)", "setting": "DPF2 (PPC2W2)", "value": 0.7316}, {"measurement": "Array Heatmap signal, BAZ2B", "setting": "BAZ2B", "value": 0.4409}, {"measurement": "Array Heatmap signal, CHD4 (PPCC)", "setting": "CHD4 (PPCC)", "value": 0.585}, {"measurement": "Array Heatmap signal, CHD5 (PCC)", "setting": "CHD5 (PCC)", "value": 0.8553}, {"measurement": "Array Heatmap signal, BPTF (PB)", "setting": "BPTF (PB)", "value": 0.414}, {"measurement": "Array Heatmap signal, TRIM66 (PB)", "setting": "TRIM66 (PB)", "value": 0.6577}, {"measurement": "Array Heatmap signal, MLL5", "setting": "MLL5", "value": 0.6047}, {"measurement": "Array Heatmap signal, PHF8", "setting": "PHF8", "value": 0.3854}, {"measurement": "Array Heatmap signal, KDM5B (3)", "setting": "KDM5B (3)", "value": 0.4813}, {"measurement": "Array Heatmap signal, PHF21A", "setting": "PHF21A", "value": 0.4826}, {"measurement": "Array Heatmap signal, KDM7A", "setting": "KDM7A", "value": 0.3306}, {"measurement": "Array Heatmap signal, ING2", "setting": "ING2", "value": 0.648}, {"measurement": "Array Heatmap signal, SP140L", "setting": "SP140L", "value": 0.3768}, {"measurement": "Array Heatmap signal, RAG2", "setting": "RAG2", "value": 0.3116}, {"measurement": "Array Heatmap signal, MORC3 (CW)", "setting": "MORC3 (CW)", "value": 0.4134}, {"measurement": "Array Heatmap signal, PHF23", "setting": "PHF23", "value": 0.5561}, {"measurement": "Array Heatmap signal, CHD5 (PPCC)", "setting": "CHD5 (PPCC)", "value": 0.532}, {"measurement": "Array Heatmap signal, KDM5B (1)", "setting": "KDM5B (1)", "value": 0.6768}, {"measurement": "Array Heatmap signal, KDM5A (3)", "setting": "KDM5A (3)", "value": 0.5097}, {"measurement": "Array Heatmap signal, AIRE (PP)", "setting": "AIRE (PP)", "value": 0.3771}, {"measurement": "Array Heatmap signal, ING1", "setting": "ING1", "value": 0.5734}, {"measurement": "Array Heatmap signal, PHF13", "setting": "PHF13", "value": 0.6317}, {"measurement": "Array Heatmap signal, DIDO1", "setting": "DIDO1", "value": 0.8034}, {"measurement": "Array Heatmap signal, PHRF1 (RP)", "setting": "PHRF1 (RP)", "value": 0.4375}, {"measurement": "Array Heatmap signal, KDM5A (1)", "setting": "KDM5A (1)", "value": 0.4472}, {"measurement": "Array Heatmap signal, ING4", "setting": "ING4", "value": 0.4639}, {"measurement": "Array Heatmap signal, ING5", "setting": "ING5", "value": 0.3605}, {"measurement": "Array Heatmap signal, TAF3", "setting": "TAF3", "value": 0.366}]}
{"substance": "H4K5ac: H4 1-23 [Peptide H4K5ac]", "values": [{"measurement": "Array Heatmap signal, ING3", "setting": "ING3", "value": 0.4744}, {"measurement": "Array Heatmap signal, PHF2", "setting": "PHF2", "value": 0.5353}, {"measurement": "Array Heatmap signal, KDM4C (TTP)", "setting": "KDM4C (TTP)", "value": 0.4448}, {"measurement": "Array Heatmap signal, DPF2 (PPC2W2)", "setting": "DPF2 (PPC2W2)", "value": 0.6533}, {"measurement": "Array Heatmap signal, BAZ2B", "setting": "BAZ2B", "value": 0.4414}, {"measurement": "Array Heatmap signal, CHD4 (PPCC)", "setting": "CHD4 (PPCC)", "value": 0.5634}, {"measurement": "Array Heatmap signal, CHD5 (PCC)", "setting": "CHD5 (PCC)", "value": 0.7301}, {"measurement": "Array Heatmap signal, BPTF (PB)", "setting": "BPTF (PB)", "value": 0.3451}, {"measurement": "Array Heatmap signal, TRIM66 (PB)", "setting": "TRIM66 (PB)", "value": 0.6888}, {"measurement": "Array Heatmap signal, MLL5", "setting": "MLL5", "value": 0.5676}, {"measurement": "Array Heatmap signal, PHF8", "setting": "PHF8", "value": 0.3344}, {"measurement": "Array Heatmap signal, KDM5B (3)", "setting": "KDM5B (3)", "value": 0.4665}, {"measurement": "Array Heatmap signal, PHF21A", "setting": "PHF21A", "value": 0.436}, {"measurement": "Array Heatmap signal, KDM7A", "setting": "KDM7A", "value": 0.3174}, {"measurement": "Array Heatmap signal, ING2", "setting": "ING2", "value": 0.5879}, {"measurement": "Array Heatmap signal, SP140L", "setting": "SP140L", "value": 0.3459}, {"measurement": "Array Heatmap signal, RAG2", "setting": "RAG2", "value": 0.2578}, {"measurement": "Array Heatmap signal, MORC3 (CW)", "setting": "MORC3 (CW)", "value": 0.3392}, {"measurement": "Array Heatmap signal, PHF23", "setting": "PHF23", "value": 0.5421}, {"measurement": "Array Heatmap signal, CHD5 (PPCC)", "setting": "CHD5 (PPCC)", "value": 0.5269}, {"measurement": "Array Heatmap signal, KDM5B (1)", "setting": "KDM5B (1)", "value": 0.6329}, {"measurement": "Array Heatmap signal, KDM5A (3)", "setting": "KDM5A (3)", "value": 0.423}, {"measurement": "Array Heatmap signal, AIRE (PP)", "setting": "AIRE (PP)", "value": 0.3943}, {"measurement": "Array Heatmap signal, ING1", "setting": "ING1", "value": 0.5387}, {"measurement": "Array Heatmap signal, PHF13", "setting": "PHF13", "value": 0.6012}, {"measurement": "Array Heatmap signal, DIDO1", "setting": "DIDO1", "value": 0.6701}, {"measurement": "Array Heatmap signal, PHRF1 (RP)", "setting": "PHRF1 (RP)", "value": 0.4272}, {"measurement": "Array Heatmap signal, KDM5A (1)", "setting": "KDM5A (1)", "value": 0.4372}, {"measurement": "Array Heatmap signal, ING4", "setting": "ING4", "value": 0.4388}, {"measurement": "Array Heatmap signal, ING5", "setting": "ING5", "value": 0.3447}, {"measurement": "Array Heatmap signal, TAF3", "setting": "TAF3", "value": 0.3079}]}
